Among the data in patent US9624246B2, “Pyridazinone macrocycles as IRAK inhibitors and uses thereof” (Merck Patent GmbH, priority 2015, dated 2017) are IC50 values, retold here.

Each structure is given as a SMILES string.

Test [1] concerns the target human purified recombinant IRAK1 (His-TEV-IRAK1 (194-712)) (Homo sapiens (Human), UniProt P51617). In words: IRAK1 enzymatic assay (ADP-Glo luminescence). It is filed as biochemical. The conditions noted are these: ATP 1 μM, 2 h at RT. The protocol:
IRAK1 is a human purified recombinant enzyme (His-TEV-IRAK1 (194-712))
In this assay, IRAK1 hydrolyses ATP and autophosphorylates. Measurement of IRAK-1 inhibition is performed in 384-well format based on luminescence assay (ADP-Glo™ Kinase Assay from Promega). Purified human recombinant IRAK1 (0.3 μg/ml) and serial diluted compounds in DMSO (range of concentration from 10 μM to 0.5 nM) or controls (1% DMSO) are incubated for 15 minutes at RT in assay buffer containing 50 mM Hepes pH 7.0, Fatty acid-free BSA 0.1%, Dithiothreitol (DTT) 2 mM, MgCl2 10 mM, EGTA 0.5 mM, Triton X-100 0.01%. The kinase reaction is then initiated by the addition of ATP at a concentration of 1 μM. After 2 hours of incubation at RT, the reaction is stopped and the unconsumed ATP depleted by the addition of ADP-Glo™ Reagent according to supplier instructions. After 40 minutes of incubation at RT, the Kinase Detection Reagent is then added to the assay plate according to supplier instructions. After 20 minutes of incubation at RT, the luminescence signal is measured with a luminometer (PerkinElmer Envision or equivalent reader).

The target of test [2] is human purified recombinant IRAK4 (His-TEV-IRAK4 (1-460)) (Homo sapiens (Human), UniProt Q9NWZ3). The test is described as follows: IRAK4 enzymatic assay (ADP-Glo luminescence). Type of test: biochemical. The note with it: ATP 2 μM, STK1-biotin peptide 300 nM, 2 h at RT. The protocol:
IRAK4 is a human purified recombinant enzyme (His-TEV-IRAK4 (1-460)).
In this assay, IRAK4 hydrolyses ATP, autophosphorylates and phosphorylates a Serine/Threonine generic peptidic substrate (STK: 61ST1BLC from CisBio International). Measurement of IRAK-4 inhibition is performed in 384-well format based on a luminescence assay (ADP-Glo™ Kinase Assay from Promega). Purified human recombinant IRAK4 (0.3 μg/ml) and serial diluted compounds in DMSO (range of concentration from 10 μM to 0.5 nM) or controls (1% DMSO) are incubated for 15 minutes at RT in assay buffer containing 50 mM Hepes pH 7.0, Fatty acid-free BSA 0.1%, Dithiothreitol (DTT) 2 mM, MgCl2 10 mM, EGTA 0.5 mM, Triton X-100 0.01%, MnCl2 5 mM. The kinase reaction is then initiated by the addition of ATP (2 μM) and the peptidic substrate STK1-biotin peptide (300 nM). After 2 hours of incubation at RT, the reaction is stopped and the unconsumed ATP depleted by the addition of ADP-Glo™ Reagent according to supplier instructions. After 40 minutes of incubation at RT, the Kinase Detection Reagent is then added to the assay plate according to supplier instructions. After 20 minutes of incubation at RT, the luminescence signal is measured with a plate-reading luminometer (PerkinElmer Envision or equivalent reader).

Sequence of human purified recombinant IRAK1 (His-TEV-IRAK1 (194-712)) (P51617 194-712): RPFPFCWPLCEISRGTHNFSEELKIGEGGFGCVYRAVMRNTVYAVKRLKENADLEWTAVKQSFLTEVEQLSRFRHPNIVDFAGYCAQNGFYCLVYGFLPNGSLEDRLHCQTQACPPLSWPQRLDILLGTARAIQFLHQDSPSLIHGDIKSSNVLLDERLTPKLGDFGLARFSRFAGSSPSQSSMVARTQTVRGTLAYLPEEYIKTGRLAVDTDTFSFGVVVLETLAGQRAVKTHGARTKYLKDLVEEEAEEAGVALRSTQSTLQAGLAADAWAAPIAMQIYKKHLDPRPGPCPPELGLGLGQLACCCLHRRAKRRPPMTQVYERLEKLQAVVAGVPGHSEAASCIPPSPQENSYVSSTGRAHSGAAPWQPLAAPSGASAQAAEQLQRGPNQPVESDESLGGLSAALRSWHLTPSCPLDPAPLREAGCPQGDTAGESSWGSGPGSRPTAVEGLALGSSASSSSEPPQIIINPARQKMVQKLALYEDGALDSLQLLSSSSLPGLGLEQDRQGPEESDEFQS
Sequence of human purified recombinant IRAK4 (His-TEV-IRAK4 (1-460)) (Q9NWZ3 whole entry): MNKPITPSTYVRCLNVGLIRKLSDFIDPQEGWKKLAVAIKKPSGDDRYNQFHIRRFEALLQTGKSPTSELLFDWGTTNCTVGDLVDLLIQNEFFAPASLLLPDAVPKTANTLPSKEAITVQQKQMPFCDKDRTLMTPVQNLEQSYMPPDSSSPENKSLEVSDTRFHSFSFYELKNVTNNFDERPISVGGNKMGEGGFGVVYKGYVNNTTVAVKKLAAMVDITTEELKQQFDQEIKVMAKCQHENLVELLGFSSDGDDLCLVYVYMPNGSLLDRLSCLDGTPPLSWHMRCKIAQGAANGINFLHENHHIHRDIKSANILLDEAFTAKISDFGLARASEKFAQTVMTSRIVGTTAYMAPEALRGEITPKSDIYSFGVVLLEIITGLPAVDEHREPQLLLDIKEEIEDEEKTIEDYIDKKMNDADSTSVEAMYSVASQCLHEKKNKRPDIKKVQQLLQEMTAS

As to `Cn1cc2c(n1)C(=O)NCCCOc1ccc(=O)n(n1)Cc1cccc(c1)C(=O)N2` [Compound 1, 12-methyl-20-oxa-1,9,12,13,16,25-hexaazatetracyclo[19.3.1.1^3,70^10,14]hexacosa-3,5,7(26),10,13,21(25),22-heptaene-8,15,24-trione], the half-maximal inhibitory concentration (IC50) in test [1] was 100 to 1000 nM; in test [2], less than 100 nM. As to `Cn1cc2c(n1)C(=O)NCCn1cc(cn1)-c1ccc(=O)n(n1)Cc1cccc(c1)C(=O)N2` [Compound 2, 12-methyl-4,5,8,11,12,15,23,27-octaazapentacyclo[21.3.1.1^2,5.1^17,210^10,14]nonacosa-1(27),2(29) 3,10,13,17(28),18,20,25-nonaene-9,16,24-trione], the IC50 in test [1] and in test [2] was less than 100 nM in each case.

For the compound `Cn1cc2c(n1)C(=O)NCc1cncc(c1)-c1ccc(=O)n(n1)Cc1cccc(c1)C(=O)N2` [Compound 3, 17-methyl-6,14,17,18,21,25,29-heptaazapentacyclo[21.3.1.1^2,61^8,12.0^15,19]nonacosa-1(27),2(29), 3,8,10,12(28),15,18,23,25-decaene-5,13,20-trione], the IC50 in test [1] is 100 to 1000 nM; in test [2] it was less than 100 nM. `Cn1cc2c(n1)C(=O)NCCOc1ccc(=O)n(n1)Cc1cccc(c1)C(=O)N2` [Compound 4, 12-methyl-19-oxa-1,9,12,13,16,24-hexaazatetracyclo[18.3.1.1^3,7.0^10,14]pentacosa-3,5,7(25),10,13,20(24),21-heptaene-8,15,23-trione]: the IC50 in test [1] and in test [2] was more than 5000 nM throughout.

In the case of `O=C1Nc2cn(C3CCOCC3)nc2C(=O)NCCCOc2ccc(=O)n(n2)Cc2cccc1c2` [Compound 6, 12-(oxan-4-yl)-20-oxa-1,9,12,13,16,25-hexaazatetracyclo[19.3.1.1^3,7.0^10,14]hexacosa-3,5,7(26),10,13,21(25),22-heptaene-8,15,24-trione], the IC50 was 100 to 1000 nM in test [1] and less than 100 nM in test [2].

Consider `CC(C)(C)n1cc2c(n1)C(=O)NCCCOc1ccc(=O)n(n1)Cc1cccc(c1)C(=O)N2` [Compound 7, 12-tert-butyl-20-oxa-1,9,12,13,16,25-hexaazatetracyclo[19.3.1.1^3,7.0^10,14]hexacosa-3,5,7(26),10,13,21(25),22-heptaene-8,15,24-trione], for which the values for the 50% inhibitory concentration (IC50) in test [1] and in test [2] were 100 to 1000 nM and less than 100 nM, respectively. Take `Cn1cc2c(n1)C(=O)NCCCOc1ccc(=O)n(n1)Cc1cccc(n1)C(=O)N2` [Compound 8, 12-methyl-20-oxa-1,9,12,13,16,25,26-heptaazatetracyclo[19.3.1.1^3,70^10,14]hexacosa-3,5,7(26),10,13,21(25),22-heptaene-8,15,24-trione]: the IC50 was more than 5000 nM in test [1] and less than 100 nM in test [2]. With `O=C1Nc2cn(C3CCOCC3)nc2C(=O)NCCCOc2ccc(=O)n(n2)Cc2cccc1n2` [Compound 9, 12-(oxan-4-yl)-20-oxa-1,9,12,13,16,25,26-heptaazatetracyclo[19.3.1.1^3,7.0^10,14]hexacosa-3,5,7(26),10,13,21(25),22-heptaene-8,15,24-trione], the figures for the half-inhibitory concentration (IC50) in test [1] and in test [2] were more than 5000 nM and less than 100 nM, respectively.

Consider `CC(C)(C)n1cc2c(n1)C(=O)NCCCOc1ccc(=O)n(n1)Cc1cccc(n1)C(=O)N2` [Compound 10, 12-tert-butyl-20-oxa-1,9,12,13,16,25,26-heptaazatetracyclo[19.3.1.1^3,7.0^10,14]hexacosa-3,5,7(26),10,13,21(25),22-heptaene-8,15,24-trione], for which, in test [2], the IC50 lay within 1000 to 5000 nM. In the case of `O=C1Nc2cn(C3CCOCC3)nc2C(=O)NCC(O)COc2ccc(=O)n(n2)Cc2cccc1c2` (stereo not drawn) [Compound 11, 18-hydroxy-12-(oxan-4-yl)-20-oxa-1,9,12,13,16,25-hexaazatetracyclo[19.3.1.1^3,7.0^10,14]hexacoa-3,5,7(26),10,13,21(25),22-heptaene-8,15,24-trione], the values for the half-inhibitory concentration (IC50) in test [1] and in test [2] were 100 to 1000 nM and less than 100 nM, respectively. As to `Cn1cc2c(n1)C(=O)NCC(O)COc1ccc(=O)n(n1)Cc1cccc(c1)C(=O)N2` (stereo not drawn) [Compound 12, 18-hydroxy-12-methyl-20-oxa-1,9,12,13,16,25-hexaazatetracyclo[19.3.1.1^3,7.0^10,14]hexacosa-3,5,7(26),10,13,21(25),22-heptaene-8,15,24-trione], the half-maximal inhibitory concentration (IC50) in test [1] was 1000 to 5000 nM; in test [2], less than 100 nM. For `Cn1cc2c(n1)C(=O)NCc1cc(ccn1)-c1ccc(=O)n(n1)Cc1cccc(c1)C(=O)N2` [Compound 13, 17-methyl-6,14,17,18,21,24,29-heptaazapentacyclo[21.3.1.1^2,6.1^8,12.0^15,19]nonacosa-1(27),2(29),3,8,10,12(28),15,18,23,25-decaene-5,13,20-trione], the IC50 was 100 to 1000 nM in test [1] and less than 100 nM in test [2]. As to `Cn1cc2c(n1)C(=O)NCCc1cccc(c1)-c1ccc(=O)n(n1)Cc1cccc(c1)C(=O)N2` [Compound 14, 17-methyl-6,14,17,18,21,30-hexaazapentacyclo[22.3.1.1^2,6.1^8,12.0^15,19]triaconta-1(28),2(30),3,8,10,12(29),15,18,24,26-decaene-5,13,20-trione], the IC50 is 100 to 1000 nM in test [1] and less than 100 nM in test [2]. On to `Cc1cc2n(n1)CCc1cccc(c1)-c1ccc(=O)n(n1)Cc1cccc(c1)C(=O)N2` [Compound 15, 17-methyl-6,14,18,19,28-pentaazapentacyclo[20.3.1.1^2,6.1^8,12.0^15,19]octacosa-1(26),2(28),3,8,10,12(27)15,17,22,24-decaene-5,13-dione], for which the IC50 in test [1] and in test [2] was more than 5000 nM throughout.
